Experimental data from ChEMBL document CHEMBL1151930, “Physicochemical determinants of human renal clearance” (J Med Chem, 2009).

Assay: clinical
Conditions: human, in vivo

SMILES	CL renal
CC1(C)S[C@@H]2[C@H](NC(=O)Cc3ccccc3)C(=O)N2[C@H]1C(=O)O [PENICILLIN G]	5 mL/min/kg
N[C@@H](C(=O)N[C@@H]1C(=O)N2C(C(=O)O)=C(CSc3c[nH]nn3)CS[C@H]12)c1ccc(O)cc1 [CEFATRIZINE]	2.64 mL/min/kg
Cc1cccc(N2CC(CO)OC2=O)c1 (configuration not stated) [TOLOXATONE]	0.11 mL/min/kg
Cn1c(=O)c2c(ncn2C)n(C)c1=O [CAFFEINE]	0.02 mL/min/kg
Nc1c2c(nc3ccccc13)CCCC2 [TACRINE]	1.68 mL/min/kg
O=C(N[C@H](CO)[C@H](O)c1ccc([N+](=O)[O-])cc1)C(Cl)Cl [CHLORAMPHENICOL]	0.24 mL/min/kg
CCCCC(=O)N(Cc1ccc(-c2ccccc2-c2nnn[nH]2)cc1)[C@H](C(=O)O)C(C)C	0.14 mL/min/kg
NC[C@H]1O[C@H](O[C@H]2[C@H](O)[C@@H](O[C@H]3O[C@H](CO)[C@@H](O)[C@H](N)[C@H]3O)[C@H](N)C[C@@H]2N)[C@H](N)C[C@@H]1O [TOBRAMYCIN]	1.19 mL/min/kg
C[C@H]1C[C@H]2[C@@H]3CCC4=CC(=O)C=C[C@]4(C)[C@@]3(F)[C@@H](O)C[C@]2(C)[C@@]1(O)C(=O)CO [BETAMETHASONE]	0.14 mL/min/kg
CC1(C)S[C@@H]2[C@H](NC(=O)C(C(=O)O)c3ccccc3)C(=O)N2[C@H]1C(=O)O (some centres not stated) [CARBENICILLIN]	1.9 mL/min/kg
COc1ccccc1OCCNCC(O)COc1cccc2[nH]c3ccccc3c12 (configuration not stated) [CARVEDILOL]	0.1 mL/min/kg
CCC1(c2cccc(O)c2)CCCCN(C)C1 (configuration not stated) [MEPTAZINOL]	1.4 mL/min/kg
NCC1(CC(=O)O)CCCCC1 [GABAPENTIN]	1.7 mL/min/kg
NC(=O)NO [HYDROXYUREA]	0.54 mL/min/kg
CC(=O)N[C@H]1[C@H]([C@H](O)[C@H](O)CO)OC(C(=O)O)=C[C@@H]1N=C(N)N [ZANAMIVIR]	1.39 mL/min/kg
O=C1CN=C(c2ccccc2)c2cc([N+](=O)[O-])ccc2N1 [NITRAZEPAM]	0.01 mL/min/kg
CNCC[C@@H](Oc1ccccc1C)c1ccccc1 [ATOMOXETINE]	0.28 mL/min/kg
Cc1cc(=O)n(-c2ccccc2)n1C [ANTIPYRINE]	0.02 mL/min/kg
Cc1cccc(C)c1NC(=O)C(C)N (configuration not stated) [TOCAINIDE]	0.8 mL/min/kg
Cc1[nH]c(=O)c(C#N)cc1-c1ccncc1 [MILRINONE]	5 mL/min/kg
COc1ccc2c3c1O[C@H]1C(=O)CC[C@@]4(O)[C@@H](C2)N(C)CC[C@]314 [OXYCODONE]	1.1 mL/min/kg

SMILES	CL renal
CN(C)CCc1c[nH]c2ccc(C[C@H]3COC(=O)N3)cc12 [ZOLMITRIPTAN]	2.2 mL/min/kg
CN1CCN(C(=O)OC2c3nccnc3C(=O)N2c2ccc(Cl)cn2)CC1 (configuration not stated) [ZOPICLONE]	0.1 mL/min/kg
CN(C)[C@@H]1C(O)=C(C(N)=O)C(=O)[C@@]2(O)C(O)=C3C(=O)c4c(O)cccc4[C@@](C)(O)[C@H]3C[C@@H]12 [TETRACYCLINE]	0.9 mL/min/kg
CC1(C)C[C@@H]1C(=O)N/C(=C\CCCCSC[C@H](N)C(=O)O)C(=O)O [CILASTATIN]	0.41 mL/min/kg
Cc1cccc(C)c1OCC(C)N (configuration not stated) [MEXILETINE]	0.83 mL/min/kg
CNS(=O)(=O)CCc1ccc2[nH]cc(C3CCN(C)CC3)c2c1	3.1 mL/min/kg
CC(C)NCC(O)COc1ccc(CCOCC2CC2)cc1 (configuration not stated) [BETAXOLOL]	0.7 mL/min/kg
C[C@@H]([C@@H](O)c1ccc(O)cc1)N1CCC(O)(c2ccccc2)CC1 [TRAXOPRODIL]	1.92 mL/min/kg
Nc1cc(-c2ccncc2)c[nH]c1=O [INAMRINONE]	3.1 mL/min/kg
C[C@@H]1CN(c2c(F)c(N)c3c(=O)c(C(=O)O)cn(C4CC4)c3c2F)C[C@H](C)N1 [SPARFLOXACIN]	0.4 mL/min/kg
COc1cccc(OC)c1C(=O)N[C@@H]1C(=O)N2[C@@H]1SC(C)(C)[C@@H]2C(=O)O [METHICILLIN]	4.2 mL/min/kg
C[C@H](Cn1cnc2c(N)ncnc21)OCP(=O)(O)O [TENOFOVIR ANHYDROUS]	2.7 mL/min/kg
COc1ccc2c3c1O[C@H]1[C@@H](O)C=C[C@H]4[C@@H](C2)N(C)CC[C@@]341 [CODEINE]	1.7 mL/min/kg
CO/N=C(\C(=O)N[C@@H]1C(=O)N2C(C(=O)O)=CCS[C@H]12)c1csc(N)n1 [CEFTIZOXIME]	1.68 mL/min/kg
COc1ccc2c(c1)c(CC(=O)O)c(C)n2C(=O)c1ccc(Cl)cc1 [INDOMETHACIN]	0.2 mL/min/kg
CCO[C@@H](Cc1ccc(OCCc2ccc(OS(C)(=O)=O)cc2)cc1)C(=O)O [TESAGLITAZAR]	0.01 mL/min/kg
CCCc1cc(=O)[nH]c(=S)[nH]1 [PROPYLTHIOURACIL]	0.04 mL/min/kg
O=C(c1ccc(F)cc1)C1CCN(CCn2c(=O)[nH]c3ccccc3c2=O)CC1 [KETANSERIN]	0.05 mL/min/kg
Nc1nc(N)c2nc(-c3ccccc3)c(N)nc2n1	2.77 mL/min/kg
CO[C@H]1/C=C/O[C@@]2(C)Oc3c(C)c(O)c4c(c3C2=O)C2=NC3(CCN(CC(C)C)CC3)NC2=C(NC(=O)/C(C)=C\C=C\[C@H](C)[C@H](O)[C@@H](C)[C@@H](O)[C@@H](C)[C@H](OC(C)=O)[C@@H]1C)C4=O [RIFABUTIN]	0.4 mL/min/kg
CC(CN1c2ccccc2Sc2ccccc21)N(C)C (configuration not stated) [PROMETHAZINE]	0.14 mL/min/kg

SMILES	CL renal
CN(C)C(=N)N=C(N)N [METFORMIN]	7.4 mL/min/kg
CCOC(=O)C1(c2ccccc2)CCN(C)CC1 [MEPERIDINE]	0.25 mL/min/kg
COc1cc([C@@H]2c3cc4c(cc3[C@@H](O[C@@H]3O[C@@H]5CO[C@@H](c6cccs6)O[C@H]5[C@H](O)[C@H]3O)[C@H]3COC(=O)[C@H]23)OCO4)cc(OC)c1O [TENIPOSIDE]	0.02 mL/min/kg
CS(=O)(=O)OCCCCOS(C)(=O)=O [BUSULFAN]	0.2 mL/min/kg
Cc1ncc([N+](=O)[O-])n1CCO [METRONIDAZOLE]	0.19 mL/min/kg
CC(C)NCC(O)COc1cccc2ccccc12 (configuration not stated) [PROPRANOLOL]	1.2 mL/min/kg
CCCCc1ncc(/C=C(\Cc2cccs2)C(=O)O)n1Cc1ccc(C(=O)O)cc1 [EPROSARTAN]	0.7 mL/min/kg
C=C1CC[C@@]2(O)[C@H]3Cc4ccc(O)c5c4[C@@]2(CCN3CC2CC2)[C@H]1O5	0.75 mL/min/kg
CC(C)NCC(O)COc1ccc(COCCOC(C)C)cc1 (configuration not stated) [BISOPROLOL]	2.28 mL/min/kg
C[C@]12C=CC(=O)C=C1CC[C@@H]1[C@@H]2[C@@H](O)C[C@@]2(C)[C@H]1CC[C@]2(O)C(=O)CO [PREDNISOLONE]	0.6 mL/min/kg
COc1cc(OC)c(C(=O)CCCN2CCCC2)c(OC)c1 [BUFLOMEDIL]	1.3 mL/min/kg
CCN(CC)CCNC(=O)c1ccc(NS(C)(=O)=O)cc1 [SEMATILIDE]	3.5 mL/min/kg
CCN1CCC[C@H]1CNC(=O)c1c(OC)ccc(Br)c1OC [REMOXIPRIDE]	0.44 mL/min/kg
CC1(C)S[C@@H]2[C@H](NC(=O)[C@H](N)c3ccccc3)C(=O)N2[C@H]1C(=O)O [AMPICILLIN]	1.2 mL/min/kg
OCCN1CCN(CCCN2c3ccccc3Sc3ccc(Cl)cc32)CC1 [PERPHENAZINE]	5 mL/min/kg
CN[C@H](CC(C)C)C(=O)N[C@H]1C(=O)N[C@@H](CC(N)=O)C(=O)N[C@H]2C(=O)N[C@H]3C(=O)N[C@H](C(=O)N[C@H](C(=O)O)c4cc(O)cc(O)c4-c4cc3ccc4O)[C@H](O)c3ccc(c(Cl)c3)Oc3cc2cc(c3O[C@@H]2O[C@H](CO)[C@@H](O)[C@H](O)[C@H]2O[C@H]2C[C@](C)(N)[C@H](O)[C@H](C)O2)Oc2ccc(cc2Cl)[C@H]1O [VANCOMYCIN]	1.03 mL/min/kg
CCC(C)(C)NCC(O)COc1ccccc1C(=O)CCc1ccccc1 (configuration not stated) [DIPRAFENONE]	0.04 mL/min/kg
O=c1[nH]cnc2c1ncn2[C@H]1CC[C@@H](CO)O1 [DIDANOSINE]	6.8 mL/min/kg
NC(=O)c1ncn([C@@H]2O[C@H](CO)[C@@H](O)[C@H]2O)n1 [RIBAVIRIN]	1.7 mL/min/kg
CCN[C@@H]1C[C@H](N)[C@@H](O[C@H]2OC(CN)=CC[C@H]2N)[C@H](O)[C@H]1O[C@H]1OC[C@](C)(O)[C@H](NC)[C@H]1O [NETILMICIN]	0.28 mL/min/kg
CC(C)(C)NCC(O)COc1ccc(NC(=O)NC2CCCCC2)cc1 (configuration not stated) [TALINOLOL]	2.6 mL/min/kg

SMILES	CL renal
Nc1ccn(C[C@@H](CO)OCP(=O)(O)O)c(=O)n1.O.O [CIDOFOVIR]	2.25 mL/min/kg
C[C@H](N[C@@H](CCc1ccccc1)C(=O)O)C(=O)N1CCC[C@H]1C(=O)O [ENALAPRILAT ANHYDROUS]	1.6 mL/min/kg
CCCCCCCCCC(=O)N[C@@H](Cc1c[nH]c2ccccc12)C(=O)N[C@H](CC(N)=O)C(=O)N[C@@H](CC(=O)O)C(=O)N[C@@H]1C(=O)NCC(=O)N[C@@H](CCCN)C(=O)N[C@@H](CC(=O)O)C(=O)N[C@H](C)C(=O)N[C@@H](CC(=O)O)C(=O)NCC(=O)N[C@H](CO)C(=O)N[C@@H]([C@H](C)CC(=O)O)C(=O)N[C@@H](CC(=O)c2ccccc2N)C(=O)O[C@@H]1C	0.09 mL/min/kg
COc1ccc(CCNCC(O)COc2cccc(C)c2)cc1OC (configuration not stated) [BEVANTOLOL]	0.06 mL/min/kg
CCCN(CCC)S(=O)(=O)c1ccc(C(=O)O)cc1 [PROBENECID]	0.03 mL/min/kg
CCOc1ccccc1OCCN[C@H](C)Cc1ccc(OC)c(S(N)(=O)=O)c1 [TAMSULOSIN]	0.08 mL/min/kg
CC(C)(C)NC(=O)[C@H]1CC[C@H]2[C@@H]3CC[C@H]4NC(=O)C=C[C@]4(C)[C@H]3CC[C@]12C [FINASTERIDE]	0.02 mL/min/kg
CN(C)Cc1nnc2n1-c1ccc(Cl)cc1C(c1ccccc1)=NC2 [ADINAZOLAM]	2.6 mL/min/kg
c1ccc(C2(c3ccccc3)CC2C2=NCCN2)cc1 (configuration not stated) [CIFENLINE]	4.2 mL/min/kg
CN(C)CCc1c[nH]c2ccc(CS(=O)(=O)N3CCCC3)cc12 [ALMOTRIPTAN]	5.79 mL/min/kg
CC(C)=CCN1CC[C@]2(C)c3cc(O)ccc3C[C@H]1[C@H]2C [(+)-PENTAZOCINE]	2.99 mL/min/kg
COc1ccc([C@@H]2Sc3ccccc3N(CCN(C)C)C(=O)[C@@H]2OC(C)=O)cc1 [DILTIAZEM]	9.23 mL/min/kg
Cc1ccccc1N1C(=O)c2cc(S(N)(=O)=O)c(Cl)cc2NC1C (configuration not stated) [METOLAZONE]	1.12 mL/min/kg
CCCc1nc2c(C)cc(-c3nc4ccccc4n3C)cc2n1Cc1ccc(-c2ccccc2C(=O)O)cc1	0.08 mL/min/kg
N[C@@H]1CN(c2c(F)cc3c(=O)c(C(=O)O)cn([C@@H]4C[C@@H]4F)c3c2Cl)CC12CC2 [SITAFLOXACIN ANHYDROUS]	2.8 mL/min/kg
CN(C)CCCN1c2ccccc2CCc2cc(O)ccc21 [2-HYDROXYIMIPRAMINE]	0.3 mL/min/kg
CCCCN1CCCCC1C(=O)Nc1c(C)cccc1C (configuration not stated) [BUPIVACAINE]	0.09 mL/min/kg
C[C@H](N[C@@H](CCc1ccccc1)C(=O)O)C(=O)N1Cc2ccccc2C[C@H]1C(=O)O	0.9 mL/min/kg
CCC1(c2ccccc2)C(=O)NC(=O)NC1=O [PHENOBARBITAL]	0.02 mL/min/kg
